From patent publication US20190292516A1, “METHOD FOR IMPROVING PRODUCT TITER IN A CELL AND A CELL MEDIA FOR IMPROVING THE SAME” (VALITACELL LIMITED, priority 2018, published 2019)

Tests used:
Format in all cases: cell-based, Chinese Hamster
[1] = Batch shake flask culture supplemented with 3TAA; conditions: Chinese hamster, CHO-S stable clone producing an anti-Her2 like IgG1 antibody, Day 0 addition
Protocol: (§1) Shake flask cultures were performed in vented Erlenmeyer flasks with a 30 ml working culture volume. Cells were seeded at 0.2×10^6 cells ml^−1. 3TAA was added at 2.5 mM (optimum concentrations from deep well plate culture) on Day 0. Growth and titer were monitored daily. Total RNA and histone extracts were collected from Day 5 of culture. Cell cycle and apoptosis analysis were performed on Day 4 and Day 5 post seeding respectively.

[2] = tested on: CHO-S stable clone producing an anti-Her2 like IgG1 antibody; assay: Batch shake flask culture supplemented with 3TAA; conditions: 2.5 mM, Day 0 addition, 10 days
Protocol: as §1

[3] = tested on: CHO-S stable clone producing an anti-Her2 like IgG1 antibody; assay: Cell cycle analysis by propidium iodide staining and flow cytometry; conditions: 3TAA 2.5 mM added Day 0, shake flask, analysed Day 4
Protocol: as §1
1×10^6 cells were extracted from culture and fixed in 4% paraformaldehyde (Alfa Aesar; Thermo Fisher Scientific). The cells were then stained with propidium iodide using the FxCycle™ PI/RNase Staining Solution (Thermo Fisher Scientific). Cell cycle analysis was performed on the Attune Acoustic Focusing Cytometer (Thermo Fisher Scientific).

[4] = tested on: CHO-S stable clone producing an anti-Her2 like IgG1 antibody; assay: Apoptosis analysis of 3TAA supplemented shake flask cultures; conditions: 3TAA 2.5 mM added Day 0, shake flask, analysed Day 5
Protocol: as §1

[5] = tested on: CHO-S stable clone producing an anti-Her2 like IgG1 antibody; assay: Deep well shaking plate culture with chemical enhancer added at Day 0 or Day 3; cell growth, viability and titer
Protocol: The Applicant uses a platform consisting of screening Chinese Hamster Ovary (CHO) cell clone leads grown in a deep well plate coated with media containing 3TAA. The cells are measured for increased growth and productivity (titer) to determine whether 3TAA, and other enhancer chemicals, have offered the optimum cell culture environment, and can improve the growth and/or productivity of promising lead clones, which otherwise, grown in sub-optimal conditions, would not have been selected. To establish optimum concentration for the best titer boost, high throughput experimentation was performed in 96 deep well plates (Greiner Bio-One, Gloucestershire, United Kingdom). The cell line used was a CHO-S stable clone producing an anti-Her2 like IgG1 antibody. Cells were cultured in CD CHO medium (Thermo Fisher Scientific, Paisley, UK), supplemented with 8 mM L-glutamine, 1% HT supplement and 12.5 ug/ml puromycin selection marker (Thermo Fisher Scientific, Paisley, UK). Cells grown in these plates were incubated at 320 rpm (25 mm throw), 37° C., 5% CO2 and 85% humidity. The plates were covered with vented lids and secured using clamps (“System Duetz”; Enzyscreen B.V., Heemstede, Netherlands). Cells were seeded at 0.2×10^6 cells ml^−1 with a seeding volume of 450 μL (unless specified otherwise). Chemical enhancer molecules, including 3TAA, were trialled at 4 to 10 different concentrations at Day 0 in culture. Subsequently, a subset of concentrations was carried forward for delayed addition at Day 3 of culture. Day 3 was chosen based on the cell growth profile in deep well plates. Cells were cultured for 5 days before culture attributes (cell growth and titer) were recorded, unless otherwise stated. Cell growth was measured using the PrestoBlue® Assay (ThermoFisher Scientific), viability was verified using the Vi-cell™ cell viability analyser (Beckmann Coulter, High Wycombe, UK), and titer was measured using the Valita™TITER assay (Valitacell, Dublin, Ireland).

[6] = 3TAA 2.5 mM, Day 0 addition, deep well plate

O=C(O)Cc1ccsc1 [3TAA, 3-Thiopheneacetic acid]
decrease in peak viable cell density at 10 days, 2.5 mM [1]: 30% | culture viability in comparison to vehicle and no addition controls [2]: remained unaffected | increase in total volumetric titer [2]: 1.9 fold | increase in accumulation in the G1 phase [3]: 11% | initiation of apoptotic pathways [4]: Apoptotic pathways were not initiated | reduction in IVCD ([5]; 2.5 mM, Day 0 addition): 25% | titer boost ([5]; 2.5 mM, Day 0 addition): 160% | reduction in IVCD ([5]; 2.5 mM, Day 3 addition): 20% | titer boost ([5]; 2.5 mM, Day 3 addition): 177% | reduction in IVCD ([5]; 4 mM, Day 0 addition): 50% | titer boost ([5]; 4 mM, Day 0 addition): 17% | reduction in IVCD ([5]; 4 mM, Day 3 addition): 25% | titer boost ([5]; 4 mM, Day 3 addition): 125% | cell growth reduction [5, 6]: 25% | titer boost [5, 6]: 1.59 fold | titer boost ([5]; delayed addition at exponential phase (Day 3), concentration not given): 2.6 fold
